This is an account of results in article PMC11046469, “Leveraging a Phage-Encoded Noncanonical Amino Acid: A Novel Pathway to Potent and Selective Epigenetic Reader Protein Inhibitors” (ACS Central Science, 2024).

Values joined by “and” are separate entries in the source; they are usually repeats but may differ in a detail not shown here. Equal entries are not always repeated. Where a SMILES comes first, the peptide text is derived from it. The star is where a group is joined. Oxazole(5-CO) = O=C(c1cnco1)*; Crotonyl(E) = C/C=C/C(=O)*; 2Furoyl = O=C(c1ccco1)*; Butyryl = CCCC(=O)*

The target in test [1] is T1, ENL YEATS domain (His-ENL YEATS) (Homo sapiens, UniProt Q03111).
T1 construct: (aa 1−148) was cloned in pET19b; made in house; host or cells: E. coli BL21(DE3pLysS)
T1 sequence (Q03111 1-148): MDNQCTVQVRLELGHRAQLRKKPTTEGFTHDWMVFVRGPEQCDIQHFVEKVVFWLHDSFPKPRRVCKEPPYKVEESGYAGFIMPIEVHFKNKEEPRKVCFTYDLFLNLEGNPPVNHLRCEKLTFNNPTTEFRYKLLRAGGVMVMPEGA
As to the kind of experiment: AlphaScreen inhibition of ENL YEATS binding to biotinylated H3K27cr peptide. As to conditions: mean ± SD, n = 3. The text has this: (§1) To test the inhibition potency of the two selected peptides for the ENL YEATS domain, ENL-S1 and ENL-S2 were chemically synthesized through solid-phase peptide synthesis (SPPS) and evaluated by an AlphaScreen assay. In this assay, a biotinylated H3K27cr peptide and a 6xHis-tagged ENL YEATS domain (His-ENL YEATS) were immobilized on PerkinElmer streptavidin donor and nickel-chelating (Ni-NTA) acceptor beads, respectively. The use of a His-ENL YEATS instead of the original AviSUMO-ENL YEATS construct in the assay prevents potential false positive results derived from ligands which bind to the SUMO protein but not to the ENL YEATS domain. […] We then assessed the binding affinity of two ligands for the ENL YEATS domain using biolayer interferometry (BLI). Briefly, His-ENL was immobilized onto Ni-NTA functionalized biosensors to measure the binding kinetics of target peptides at different concentrations. […] As a small peptide directly selected from a phage display library, this level of high potency was unexpected. […] However, shorter-than-10-mer linear peptides with nanomolar binding potency have rarely been directly selected from phage display libraries. One example was S2P03, a 7-mer peptide that has a KD value as 49 ± 9 nM to bind to SIRT2.[10] This peptide contained BuK and was identified also from a BuK-containing phage display library using the active site-directed ligand selection technique. Taken together, the two examples confirmed that utilizing phage display libraries incorporated with a ncAA serving as a ligand for a protein target for active site-directed ligand selection is a successful method for identifying ultrahigh potency ligands for epigenetic proteins including both enzymes and readers. For ENL-S1 and ENL-S2, their determined kon and koff values were 6.23 ± 0.07 × 10^4 M^–1 s^–1, […] and […], 5.54 ± 0.02 × 10^–3 s^–1, respectively. Compared to ENL-S2, ENL-S1 has faster binding to the ENL YEATS domain and slower release from it, indicating its potential long-term action on the ENL YEATS inhibition. […]
Characterization of Selected Peptide Inhibitors
AlphaScreen Assay to Validate ENL Inhibitors:
His-ENL, His-AF9 (aa 1-149, EpiCypher), and biotinylated H3K27cr (aa 15-33, EpiCypher) were used to assay the synthesized inhibitors. The lyophilized peptide inhibitors were dissolved in DMF […]
and serially diluted into assay buffer (50 mM HEPES, 100 mM NaCl, 0.1% BSA, 0.05% CHAPS, pH 7.4) and incubated in the presence of 120 nM His-tagged protein at 37 °C for 30 minutes. 12.5 μL of biotinylated H3K27cr (400 nM) was aliquoted into a light gray 384-well Alphaplate (Perkin Elmer) and incubated at 37 °C. 12.5 μL of the inhibitor/protein solution was added to the H3K27cr solution, and incubated for 30 minutes at 37 °C. 25 μL of AlphaScreen histidine (nickel chelate) detection beads (Perkin Elmer) was added at 20 μg/mL each bead (streptavidin donor beads and nickel chelate acceptor beads), and the plate was incubated at 37 °C for 30 minutes. The plate was cooled to room temperature for 10 minutes, and then the beads were excited at 680 nm and the luminescence at 615 nm was read. […]
Biolayer […]
interferometry assays were performed in 96 well plates (GreinerBio-One, polypropylene, flat-bottom) using an Octet Red96 System (Sartorius). Wells were filled with 200 μL of assay buffer, blocking buffer (assay buffer + 0.1% BSA), protein solution, peptide solution, regeneration solution, and reload solution. For immobilization, His-tagged proteins were immobilized onto Ni-NTA sensors at 20 for 600 s. Sensors were then dipped into blocking buffer for 180 s, assay […] buffer for 300 s, peptide solution for 300 s, and back to assay buffer for 300 s. If multiple samples were tested, Ni-NTA sensors can be reconditioned in regeneration (10 mM glycine, pH 1.7) solution followed by reload solution (10 mM NiCl2) for 30 and 60 s, respectively. Measurements […]
A general note: Alpha assays give light when donor and acceptor beads are brought close together.

In test [2] the target is T2, ENL YEATS domain (His-ENL) (Homo sapiens, UniProt Q03111).
T2 construct: (aa 1−148) was cloned in pET19b; made in house; host or cells: E. coli BL21(DE3pLysS)
T2 sequence (Q03111 1-148): T1 sequence (Q03111 1-148)
As to the kind of experiment: Biolayer interferometry (BLI) binding to ENL YEATS. As to conditions: for Selectivity (ENL:AF9) from BLI KD values: ratio KD,AF9 / KD,ENL.
Text: as §1
Biolayer Interferometry to Validate ENL Ligands:
His-ENL, His-AF9 (aa 1-149, EpiCypher), His-GAS41 (aa 15-160, EpiCypher), and YEATS2-His (aa 200-345, EpiCypher) were reconstituted in water and diluted into assay buffer (20mM Tris, 300 mM NaCl, pH 7.9) for immobilization onto Octet Ni-NTA biosensors (Sartorius). Lyophilized peptides were dissolved in DMF and diluted to designated concentrations in assay buffer. Biolayer interferometry assays were performed in 96 well plates (GreinerBio-One, polypropylene, flat-bottom) using an Octet Red96 System (Sartorius). Wells were filled with 200 μL of assay buffer, blocking buffer (assay buffer + 0.1% BSA), protein solution, peptide solution, regeneration solution, and reload solution. For immobilization, His-tagged proteins were immobilized onto Ni-NTA sensors at 20 for 600 s. Sensors were then dipped into blocking buffer for 180 s, assay […] buffer for 300 s, peptide solution for 300 s, and back to assay buffer for 300 s. If multiple samples were tested, Ni-NTA sensors can be reconditioned in regeneration (10 mM glycine, pH 1.7) solution followed by reload solution (10 mM NiCl2) for 30 and 60 s, respectively. Measurements were carried out at 30 °C. Data were analyzed within the ForteBio Data Analysis software. Data were processed by double subtracting ligand only and protein only reference wells and aligning the data to the beginning of the association. Then, global kinetic fit was performed for all sensogram curves with a 1:1 model. Steady state KD values were reported.
AlphaScreen Assay with Biotinylated-ENL-S1:
The AlphaScreen assay was carried out in 384-well plates. Manual assay setup was performed in a 40 uL reaction buffer (50 mM HEPES pH 7.4, 100 mM NaCl, 0.1% bovine serum albumin, and 0.05% CHAPS). 10 µL of varying concentrations of His-ENL YEATS (0-300 nM) and 10 µL of […]

For orientation: IC50 means the concentration that inhibits the measured activity by half. Low values mean greater potency in that assay, high ones weaker potency in that assay. The Kd is a measure of binding affinity in units of concentration. Read a low Kd as tighter binding. In general, kon refers to the second-order rate constant of association. Low readings indicate slower complex formation, high ones faster complex formation. In test [1], `CCCC(=O)NCCCC[C@H](NC(=O)[C@H](Cc1ccc(O)cc1)NC(=O)[C@H](CS)NC(=O)[C@H](Cc1ccc(O)cc1)NC(=O)[C@@H](NC(=O)[C@H](CC(=O)O)NC(=O)[C@@H](N)Cc1ccc(O)cc1)C(C)C)C(N)=O` [ENL-S1] (H-YDVYCYK(Butyryl)-NH2) came in with an IC50 of 62.6 ± 1.4 nM. In test [2] (BLI), the Kd is 36.3 nM and 36 nM; the kon was determined as 62300 ± 7e+06 M⁻¹ s⁻¹. The “Selectivity (ENL:AF9) from BLI KD values” in test [2] came to 5.6 fold.
With `C/C=C/C(=O)NCCCC[C@H](NC(=O)[C@H](Cc1ccc(O)cc1)NC(=O)[C@H](CS)NC(=O)[C@H](Cc1ccc(O)cc1)NC(=O)[C@@H](NC(=O)[C@H](CC(=O)O)NC(=O)[C@@H](N)Cc1ccc(O)cc1)C(C)C)C(N)=O` [ENL-S1c] (H-YDVYCYK(Crotonyl(E))-NH2), the IC50 in test [1] amounted to 20 nM. Besides, the Kd in test [2] (BLI) is 16.2 nM. Moreover, the “Selectivity (ENL:AF9) from BLI KD values” in test [2] is 9.1 fold.
Taken in the same sequence, the figures for `CC(C)[C@H](NC(=O)[C@H](CC(=O)O)NC(=O)[C@@H](N)Cc1ccc(O)cc1)C(=O)N[C@@H](Cc1ccc(O)cc1)C(=O)N[C@@H](CS)C(=O)N[C@@H](Cc1ccc(O)cc1)C(=O)N[C@@H](CCCCNC(=O)c1ccco1)C(N)=O` [ENL-S1f] (H-YDVYCYK(2Furoyl)-NH2) were 22.4 ± 2.2 nM, 10.3 nM and 14.0 fold.
For the compound `CC(C)[C@H](NC(=O)[C@H](CC(=O)O)NC(=O)[C@@H](N)Cc1ccc(O)cc1)C(=O)N[C@@H](Cc1ccc(O)cc1)C(=O)N[C@@H](CS)C(=O)N[C@@H](Cc1ccc(O)cc1)C(=O)N[C@@H](CCCCNC(=O)c1cnco1)C(N)=O` [ENL-S1o] (H-YDVYCYK(Oxazole(5-CO))-NH2), the IC50 in test [1] was 10 nM and 10.3 nM. Also, in test [2] (BLI), the Kd is 2 nM. For the same compound, the “Selectivity (ENL:AF9) from BLI KD values” in test [2] is 27.6 fold.
